These compounds were tested against T1, EBP (Homo sapiens, UniProt Q15125) (assay: EBP Functional Assay (EBP immunoaffinity LC-MS assay)). Settings: HEK293T cells as source of EBP enzyme; substrate zymosterol-d5, 37° C. for 4 h; percent conversion to dehydrolathosterol-d5 by LC-APCI MRM MS.
T1 construct: HEK293T cells were utilized as the source of EBP enzyme; endogenous in cells; host or cells: HEK293T
T1 sequence (Q15125 whole entry): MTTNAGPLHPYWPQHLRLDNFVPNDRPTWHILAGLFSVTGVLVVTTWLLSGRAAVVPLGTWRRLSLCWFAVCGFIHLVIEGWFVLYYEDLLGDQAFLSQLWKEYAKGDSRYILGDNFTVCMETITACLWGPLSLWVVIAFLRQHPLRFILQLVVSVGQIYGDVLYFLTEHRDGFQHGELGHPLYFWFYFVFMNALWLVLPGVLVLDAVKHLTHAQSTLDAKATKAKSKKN
Type: biochemical
Experimental: The EBP immunoaffinity (IA) LC-MS assay measures the potency of small molecule inhibitors of EBP by quantifying their concentration-dependent changes in the enzyme's substrate and product using liquid chromatography atmospheric pressure chemical ionization multiple reaction monitoring mass spectrometry (LC-APCI MRM MS). HEK293T cells were utilized as the source of EBP enzyme. The enzyme was incubated with the small molecule inhibitors at variable concentrations for 30 min. Deuterated form of EBP substrate, zymosterol-d5 (Avanti Polar Lipids, Cat #700068P-1 mg), was then added and the plate was incubated at 37° C. for 4 h. Finally, the sterol isomers were extracted and injected to LC-APCI MRM MS. MRM transition used for the quantification for both zymosterol and […] (substrate and product of EBP enzymatic reaction, respectively) is 372.3-203.2, CE 30 and DP 80 in positive ion mode. Percent conversion of the zymosterol-d5 to dehydrolathosterol-d5 was used to derive IC50 curves. Tasin-1 (1′-[(4-Methoxyphenyl)sulfonyl]-4-methyl-1,4′-bipiperidine, CAS 792927-06-1) was used as the reference small molecule inhibitor.
Percent conversion versus the compound concentration data were fit to the following 4-parameter logistic model to generate IC50 curves: […]
With `COc1cc(S(=O)(=O)N2CCC3(CCC(N4CC5(COC5)C4)C3)CC2)n(C)n1` (stereo not shown) [Example 124, 6-(8-((3-methoxy-1-methyl-1H-pyrazol-5-yl)sulfonyl)-8-azaspiro[4.5]decan-2-yl)-2-oxa-6-azaspiro[3.3]heptane] the IC50 was < 0.1 µM. `O=S(=O)(c1ccc2ccoc2c1)N1CCC2(CCC(N3CC4(COC4)C3)C2)CC1` (stereo not shown) [Example 135, 6-(8-(benzofuran-6-ylsulfonyl)-8-azaspiro[4.5]decan-2-yl)-2-oxa-6-azaspiro[3.3]heptane] gave an IC50 of 0.1 to 0.25 µM. `O=S(=O)(c1cc(F)cc(F)c1)N1CCC2(CC1)CC(N1CC3(COC3)C1)CO2` (racemic) [Example 118, rac-8-((3,5-difluorophenyl)sulfonyl)-3-(2-oxa-6-azaspiro[3.3]heptan-6-yl)-1-oxa-8-azaspiro[4.5]decane] showed an IC50 of 0.1 to 0.25 µM. Work on `N#Cc1cc(F)cc(S(=O)(=O)N2CCC3(CCC(N4CC5(COC5)C4)C3)CC2)c1` (stereo not shown) [Example 13] yielded an IC50 of 0.1 to 0.25 µM. `Cc1cc(C)c(S(=O)(=O)N2CCC3(CC2)CC(N2CCC4(CCOC4)C2)CO3)cn1` (stereo not shown) [Example 28, 8-((4,6-Dimethylpyridin-3-yl)sulfonyl)-3-(2-oxa-7-azaspiro[4.4]nonan-7-yl)-1-oxa-8-azaspiro[4.5]decane] was tested, and the IC50 was 0.25 to 1.5 µM. With `O=S(=O)(c1cnc2cccc(F)c2c1)N1CCC2(CCC(N3CC4(COC4)C3)C2)CC1` (stereo not shown) [Example 132, 6-(8-((5-fluoroquinolin-3-yl)sulfonyl)-8-azaspiro[4.5]decan-2-yl)-2-oxa-6-azaspiro[3.3]heptane] the IC50 was < 0.1 µM. With `N#Cc1cccc(S(=O)(=O)N2CCC3(CCC(N4CC5(COC5)C4)C3)CC2)c1` (stereo not shown) [Example 11] the IC50 was 0.1 to 0.25 µM. `Cn1nc(C2CC2)cc1S(=O)(=O)N1CCC2(CC1)C[C@@H](N1CC3(COC3)C1)CO2` (single isomer, unassigned) [Example 57a] showed an IC50 of 0.25 to 1.5 µM. Work on `Cc1ccc(S(=O)(=O)N2CCC3(CC2)C[C@H](N2CC(O)C2)CO3)c(Cl)c1` (single isomer, unassigned) [Example 53b] yielded an IC50 of 0.1 to 0.25 µM. For `COc1ncc(C)cc1S(=O)(=O)N1CCC2(CC1)CC(N1CC3(COC3)C1)CO2` (stereo not shown) [Example 117, 8-((2-methoxy-5-methylpyridin-3-yl)sulfonyl)-3-(2-oxa-6-azaspiro[3.3]heptan-6-yl)-1-oxa-8-azaspiro[4.5]decane], the IC50 was 0.25 to 1.5 µM. `Cc1cc(S(=O)(=O)N2CCC3(CCC(N4CCC(C)(O)CC4)C3)CC2)n(C)n1` (stereo not shown) [Example 84, 1-(8-((1,3-dimethyl-1H-pyrazol-5-yl)sulfonyl)-8-azaspiro[4.5]decan-2-yl)-4-methylpiperidin-4-ol] showed an IC50 of 0.1 to 0.25 µM. `N#Cc1ccc(S(=O)(=O)N2CCC3(CC2)CC(N2CC4(COC4)C2)CO3)c(Cl)c1` (stereo not shown) [Example 9] gave an IC50 of 0.25 to 1.5 µM. For `COc1cc(S(=O)(=O)N2CCC3(CCC(N4CCOCC4)C3)CC2)n(C)n1` (stereo not shown) [Example 26, 4-(8-((3-Methoxy-1-methyl-1H-pyrazol-5-yl)sulfonyl)-8-azaspiro[4.5]decan-2-yl)morpholine], the IC50 was < 0.1 µM. In the case of `COCCNC1COC2(CCN(S(=O)(=O)c3ccc(C)cc3C)CC2)C1` (stereo not shown) [Example 116, 8-((2,4-dimethylphenyl)sulfonyl)-N-(2-methoxyethyl)-1-oxa-8-azaspiro[4.5]decan-3-amine], the IC50 is reported as 0.25 to 1.5 µM. `O=S(=O)(c1cc(C(F)F)nn1C1CC1)N1CCC2(CC1)CC(N1CC3(COC3)C1)C2` [Example 123, 6-(7-((1-cyclopropyl-3-(difluoromethyl)-1H-pyrazol-5-yl)sulfonyl)-7-azaspiro[3.5]nonan-2-yl)-2-oxa-6-azaspiro[3.3]heptane] was tested, and the IC50 was < 0.1 µM. With `Cc1cnc(S(=O)(=O)N2CCC3(CCC(N4CCOCC4)C3)CC2)c(C)c1` (stereo not shown) [Example 25, 4-(8-((3,5-Dimethylpyridin-2-yl)sulfonyl)-8-azaspiro[4.5]decan-2-yl)morpholine] the IC50 was 0.1 to 0.25 µM. Work on `N#Cc1ccc(F)c(S(=O)(=O)N2CCC3(CC2)CC(N2CCCCC2)CO3)c1` (stereo not shown) [Example 47, 4-Fluoro-3-((3-(piperidin-1-yl)-1-oxa-8-azaspiro[4.5]decan-8-yl)sulfonyl)benzonitrile] yielded an IC50 of 0.1 to 0.25 µM. `O=S(=O)(c1ccc(OC(F)(F)F)cn1)N1CCC2(CCC(N3CC4(COC4)C3)C2)CC1` (stereo not shown) [Example 114] was tested, and the IC50 was 0.25 to 1.5 µM. `N#Cc1ccc(Cl)c(S(=O)(=O)N2CCC3(CC2)CC(N2CC4(COC4)C2)CO3)c1` (stereo not shown) [Example 64, 3-((3-(2-Oxa-6-azaspiro[3.3]heptan-6-yl)-1-oxa-8-azaspiro[4.5]decan-8-yl)sulfonyl)-4-chlorobenzonitrile] showed an IC50 of 0.25 to 1.5 µM. In the case of `Cc1cc(S(=O)(=O)N2CCC3(CCC(N4CCOCC4)C3)CC2)n(C)n1` (stereo not shown) [Example 21, 4-(8-((1,3-Dimethyl-1H-pyrazol-5-yl)sulfonyl)-8-azaspiro[4.5]decan-2-yl)morpholine], the IC50 is reported as 0.1 to 0.25 µM. Compound `Cc1cc(S(=O)(=O)N2CCC3(CC[C@@H](N4CCOCC4)C3)CC2)n(C)n1` (single isomer, unassigned) [Example 22a] has an IC50 of 0.25 to 1.5 µM. With `COc1ncc(Cl)cc1S(=O)(=O)N1CCC2(CC1)CC(N1CC(OC)C1)CO2` (stereo not shown) [Example 61, 8-((5-Chloro-2-methoxypyridin-3-yl)sulfonyl)-3-(3-methoxyazetidin-1-yl)-1-oxa-8-azaspiro[4.5]decane] the IC50 was 0.25 to 1.5 µM. In the case of `O=S(=O)(c1ccc2c(c1)OCCO2)N1CCC2(CCC(N3CC4(COC4)C3)C2)CC1` (stereo not shown) [Example 107], the IC50 is reported as < 0.1 µM. `Cc1occc1S(=O)(=O)N1CCC2(CCC(N3CC4(COC4)C3)C2)CC1` (stereo not shown) [Example 105] was tested, and the IC50 was 0.25 to 1.5 µM. With `COc1ccc(S(=O)(=O)N2CCC3(CCC(N4CC5(COC5)C4)C3)CC2)c(F)c1` (stereo not shown) [Example 129, 6-(8-((2-fluoro-4-methoxyphenyl)sulfonyl)-8-azaspiro[4.5]decan-2-yl)-2-oxa-6-azaspiro[3.3]heptane] the IC50 was < 0.1 µM. `Cc1cc(S(=O)(=O)N2CCC3(CC[C@H](N4CCOCC4)C3)CC2)n(C)n1` (single isomer, unassigned) [Example 22b] was tested, and the IC50 was 0.1 to 0.25 µM. `O=S(=O)(c1ccc(OC(F)F)cc1)N1CCC2(CC[C@@H](N3C[C@H]4C[C@@H]3CO4)C2)CC1` (single isomer, unassigned) [Example 86a] was tested, and the IC50 was < 0.1 µM. Work on `COc1ccc(S(=O)(=O)N2CCC3(CC2)CC(N(C)C2CC4(COC4)C2)CO3)c(F)c1` (stereo not shown) [Example 136, 8-((2-fluoro-4-methoxyphenyl)sulfonyl)-N-methyl-N-(2-oxaspiro[3.3]heptan-6-yl)-1-oxa-8-azaspiro[4.5]decan-3-amine] yielded an IC50 of 0.1 to 0.25 µM. `Cn1nc(C(F)(F)F)cc1S(=O)(=O)N1CCC2(CC1)CC(NC1CC3(COC3)C1)CO2` (stereo not shown) [Example 139, 8-((1-methyl-3-(trifluoromethyl)-1H-pyrazol-5-yl)sulfonyl)-N-(2-oxaspiro[3.3]heptan-6-yl)-1-oxa-8-azaspiro[4.5]decan-3-amine] showed an IC50 of 0.1 to 0.25 µM. `O=S(=O)(c1cccc2ccnn12)N1CCC2(CCC(N3CC4(COC4)C3)C2)CC1` (stereo not shown) [Example 131, 6-(8-(pyrazolo[1,5-a]pyridin-7-ylsulfonyl)-8-azaspiro[4.5]decan-2-yl)-2-oxa-6-azaspiro[3.3]heptane] was tested, and the IC50 was 0.1 to 0.25 µM. Compound `COC1CN(C2COC3(CCN(S(=O)(=O)c4cnc(C5CC5)s4)CC3)C2)C1` (stereo not shown) [Example 55, 8-((2-Cyclopropylthiazol-5-yl)sulfonyl)-3-(3-methoxyazetidin-1-yl)-1-oxa-8-azaspiro[4.5]decane] has an IC50 of 0.25 to 1.5 µM. Compound `Cc1ccc(F)c(S(=O)(=O)N2CCC3(CC2)CC(N2CCOCC2)CO3)c1` (stereo not shown) [Example 18, 8-((2-Fluoro-5-methylphenyl)sulfonyl)-3-morpholino-1-oxa-8-azaspiro[4.5]decane] has an IC50 of 0.1 to 0.25 µM. In the case of `COc1cc(S(=O)(=O)N2CCC3(CC2)CC(N2CC4(COC4)C2)CO3)c(F)cn1` (stereo not shown) [Example 115], the IC50 is reported as 0.25 to 1.5 µM. In the case of `COc1ncc(S(=O)(=O)N2CCC3(CCC(N4CC5(COC5)C4)C3)CC2)cc1Cl` (stereo not shown) [Example 106], the IC50 is reported as < 0.1 µM. `O=S(=O)(c1ccc(OC2CC2)cn1)N1CCC2(CCC(N3CCOCC3)C2)CC1` (stereo not shown) [Example 32, 4-(8-((5-Cyclopropoxypyridin-2-yl)sulfonyl)-8-azaspiro[4.5]decan-2-yl)morpholine] gave an IC50 of 0.25 to 1.5 µM. `Cn1nc(C(F)F)cc1S(=O)(=O)N1CCC2(CC1)CC(N1CC3(COC3)C1)C2` [Example 122, 6-(7-((3-(difluoromethyl)-1-methyl-1H-pyrazol-5-yl)sulfonyl)-7-azaspiro[3.5]nonan-2-yl)-2-oxa-6-azaspiro[3.3]heptane] was tested, and the IC50 was < 0.1 µM. With `Cc1ccc(C#N)cc1S(=O)(=O)N1CCC2(CC1)C[C@H](N1CCOCC1)CO2` (single isomer, unassigned) [Example 15b] the IC50 was 0.25 to 1.5 µM. Compound `Cc1nc(C(F)(F)F)ccc1S(=O)(=O)N1CCC2(CC1)CC(NC1CCOCC1)CO2` (stereo not shown) [Example 138, 8-((2-methyl-6-(trifluoromethyl)pyridin-3-yl)sulfonyl)-N-(tetrahydro-2H-pyran-4-yl)-1-oxa-8-azaspiro[4.5]decan-3-amine] has an IC50 of 0.25 to 1.5 µM. In the case of `O=S(=O)(c1ccc2ncc(F)cc2c1)N1CCC2(CCC(N3CC4(COC4)C3)C2)CC1` (stereo not shown) [Example 133, 6-(8-((3-fluoroquinolin-6-yl)sulfonyl)-8-azaspiro[4.5]decan-2-yl)-2-oxa-6-azaspiro[3.3]heptane], the IC50 is reported as 0.1 to 0.25 µM. With `Cc1cc(S(=O)(=O)N2CCC3(CC[C@@H](N4CC5(COC5)C4)C3)CC2)n(C)n1` (single isomer, unassigned) [Example 68a] the IC50 was 0.1 to 0.25 µM.

Reference: patent US20250152574A1 (BIOGEN MA INC., priority 2022, published 2025)
